Test results taken from US7507727B2, “Substituted quinobenzoxazine analogs and methods of using thereof” (Cylene Pharmaceuticals, Inc., priority 2003, dated 2009).
Like-named read-outs stand apart in the source and are kept apart here.

Experiments:
[1] = target: c-Myc template DNA (c-myc quadruplex); assay: Quadruplex binding / stop assay (Taq polymerase arrest, capillary electrophoresis)
Source text: A high throughput polymerase arrest assay has been developed. The assay comprises contacting a template nucleic acid, often DNA, with a primer, which also is often DNA; contacting the primer/template complex with a compound described herein (also referred to as a “test compound”); contacting the primer/template complex with a polymerase; and separating reaction products. The assay often includes the step of denaturing the primer/template complex mixture and then renaturing the complex, which often is carried out before a test molecule is added to the system. Multiple assays often are carried out using varying concentrations of a test compound, such that an IC50 value can be obtained, for example. The reaction products often include extended primers of different lengths.
Thus, the reaction mixture often includes at least two reaction products when a test compound interacts with a quadruplex structure in the template, one having a completely extended primer and one having an incompletely extended primer, and these two reaction products are separated. The products may be separated using any convenient separation method, such as mass spectrometry and in one embodiment, capillary electrophoresis.
In an embodiment, a primer oligonucleotide covalently linked to a fluorescent label is contacted with template DNA. The resulting complex is contacted with a test molecule and then contacted with a polymerase capable of extending the primer. The reaction products then are separated and detected by capillary electrophoresis. A longer primer sequence was used for practicing this embodiment as compared to embodiments where the primer includes no covalently-linked fluorophore or where capillary electrophoresis is not utilized for separation. Deoxynucleotides are added at any stage of the assay before the separation, often when the primer is contacted with the template DNA. The template DNA/primer complex often is denatured (e.g., by increasing the temperature of the system) and then renatured (e.g., by cooling the system) before a test compound is added).
The mixture was denatured at 95° C. for 5 minutes and, after cooling down to room temperature, was incubated at 37° C. for 15 minutes.
After cooling down to room temperature, 1 mM KCl and the test compound (various concentrations) were added and the mixture incubated for 15 minutes at room temperature. The primer extension was performed by adding 10 mM KCl and Taq DNA Polymerase (2.5 U/reaction, Promega) and incubating at 70° C. for 30 minutes. The reaction was stopped by adding 1 μl of the reaction mixture to 10 μl Hi-Di Formamide mixed and 0.25 μl LIZ120 size standard. Hi-Di Formamide and LIZ120 size standard were purchased from Applied Biosystems.
The partially extended quadruplex arrest product was between 61 or 62 bases long and the full-length extended product was 99 bases long. The products were separated and analyzed using capillary electrophoresis. Capillary electrophoresis was performed using an ABI PRISM 3100-Avant Genetic Analyzer.
Stop Assays. […] A fluorescently labeled primer DNA is then annealed to the 3′ end of the template DNA. A DNA polymerase such as Taq polymerase is then introduced to synthesize a complementary strand of DNA by extending from the fluorescently labeled primer. When the progress of the Taq polymerase is unhindered, it synthesizes a full-length copy of the template.
These products are visualized by capillary electrophoresis.

HeLa cells = assay: MTS cell proliferation and/or cytotoxicity assay; type: cell-based, Human
Protocol: Cell culture. Human cervical epithelial cells (HeLa cells) were obtained from American Type Culture Collection (Manassas, Va.). Cells were grown in Eagle's minimum essential medium (MEM, Hyclone, Utah) supplemented with 2 mM Glutamine, 0.1 mM nonessential amino acid, 1 mM Na Pyruvate, 1.5 g/L NaHCO3, 50 mg/L gentamicin, and 10% fetal bovine serum (Hyclone, USA) in a humidified atmosphere of 5% CO2 at 37° C.
MTS assays. Antiproliferative effects of the compounds were tested by the CellTiter 96 AQueous assay (Promega, WI), which is a calorimetric assay for determining the number of viable cells. (See, e.g., Wang, L., et al., Methods Cell Sci (1996) 18:249-255). In one example, cells (4,500 cells/well) were seeded on 96 well flat bottom plates (Corning, N.Y.) in 100 μl of culture medium without any anticancer drug on day 0, and the culture medium was exchanged for that //contained anticancer drugs at various concentrations on day 1. After incubation for 3 days under normal growth conditions (on day 4), the monolayers were washed once in PBS, and the medium was switched to 100 μl of PBS in each of the 96 well plate. After mixing MTS and PMS at the ratio of 20:1, 20 μl of MTS/PMS solution was added to each of the 96 well plate and incubated for 4 hours in a humidified atmosphere of 5% CO2 at 37° C. The absorbance was read at 490 nm using FLUOstar Galaxy 96 well plate reader (BMG Labtechnologies, Germany). μM concentrations (MTS data) reported in Table 1 are concentrations at which 50% of antiproliferative cell response is seen.

[2] = read-out: Stop Data c-Myc μM, concentration at which 50% of the DNA was arrested (arrested:full-length 1:1)
[3] = Homo sapiens, HeLa, 72 h, concentration at which 50% of antiproliferative cell response is seen, 3 days incubation, read-out: MTS Data Hella
[4] = read-out: S DATA, Table 1D, stop assay data
[5] = Homo sapiens, HeLa, HeLa cells, MTS, read-out: Hela MTS
[6] = concentration at which 50% of antiproliferative cell response is seen, 3 days incubation, read-out: MTS Data Hella

SMILES	IC50 [1, 2]	IC50 [1, 4]	IC50 (HeLa cells; [3])	IC50 (HeLa cells; [5])	IC50 (HeLa cells; [6])
NC1CCN(c2c(F)cc3c(=O)c(C(=O)O)cn4c5cc6c(=O)c7ccccc7c(=O)c6cc5oc2c34)C1 (stereo not shown) [compound 25]	0.25 µM		200 nM		
CN1CCN(CCCNC(=O)c2cn3c4cc5c(cc4oc4c(NCCN6CCCC6)c(F)cc(c2=O)c43)c(=O)c2ccccc25)CC1 [compound 524]	0.375 µM		1500 nM		
O=C(CCN1CCCC1)N[C@@H]1CCN(c2c(F)cc3c(=O)c(C(=O)NCCN4CCOCC4)cn4c3c2Oc2cc3c(cc2-4)oc2ccccc23)C1 [compound 504]	0.375 µM		3400 nM		
CN1CCN(c2c(F)cc3c(=O)c(C(=O)NCCN4CCCC4)cn4c5cc6c(=O)c7ccccc7c(=O)c6cc5oc2c34)CC1 [compound 340]	0.9 µM		8500 nM		
CN(C)CCCCNC(=O)c1cn2c3c(c(NCCCCN(C)C)c(F)cc3c1=O)Oc1cc3c(cc1-2)oc1ccccc13 [compound 367]	0.75 µM		3700 nM		
CCN(C)CCCC(C)NC(=O)c1cn2c3c(c(NCCN4CCCC4)ccc3c1=O)Oc1cc3ccccc3cc1-2 (stereo not shown) [compound 543]	0.375 µM		200 nM		
CN1CCN(CCC(=O)N[C@@H]2CCN(c3c(F)cc4c(=O)c(C(=O)NCCN5CCCC5)cn5c4c3Oc3cc4c(cc3-5)oc3ccccc34)C2)CC1 [compound 533]	0.375 µM		400 nM		
CN(C)CCCCNC(=O)c1cn2c3c(c(NCCN4CCCC4)ccc3c1=O)Oc1cc3ccccc3cc1-2 [compound 1520]		0.375 µM		200 nM	
CN(C)CCCCNC(=O)c1cn2c3cc4c(cc3oc3c(N5CC[C@H](NC(=O)OC(C)(C)C)C5)c(F)cc(c1=O)c32)c(=O)c1ccccc14 [compound 480]	0.5 µM		3700 nM		
CN1CCCC1CCNc1c(F)cc2c(=O)c(C(=O)NCCN3CCCC3)cn3c4cc5c(cc4oc1c23)c(=O)c1ccccc15 (stereo not shown) [compound 527]	0.375 µM		790 nM		
CN1CCCC1CCNC(=O)c1cn2c3cc4c(cc3oc3c(N5CC[C@H](N)C5)c(F)cc(c1=O)c32)c(=O)c1ccccc14 (stereo partly shown) [compound 582]	0.18 µM		280 nM		
CC1(C)CC(NC(=O)c2cn3c4c(c(N5CCC(N)C5)c(F)cc4c2=O)Oc2cc4ccccc4cc2-3)CC(C)(C)N1 (stereo not shown) [compound 539]	0.375 µM		280 nM		
CC(=O)N[C@@H]1CCN(c2c(F)cc3c(=O)c(C(=O)NCCCCN(C)C)cn4c3c2Oc2cc3c(cc2-4)oc2ccccc23)C1 [compound 374]	0.75 µM		3300 nM		
CN1CCCC1CCNc1c(F)cc2c(=O)c(C(=O)NCCCN3CCOCC3)cn3c4cc5c(cc4oc1c23)c(=O)c1ccccc15 (stereo not shown) [compound 523]	0.375 µM		1600 nM		
O=C(NCCCN1CCOCC1)c1cn2c3cc4c(cc3oc3c(NCCN5CCCC5)c(F)cc(c1=O)c32)c(=O)c1ccccc14 [compound 502]	0.375 µM		4000 nM		
O=C(NCCN1CCCC1)c1cn2c3c(c(N4CC5CCCNC5C4)ccc3c1=O)Oc1cc3ccccc3cc1-2 (stereo not shown) [compound 544]	0.375 µM		200 nM		
O=C(NCCCN1CCOCC1)c1cn2c3cc4c(=O)c5ccccc5c(=O)c4cc3oc3c(NCCN4CCCC4)c(F)cc(c1=O)c32 [compound 591]	0.13 µM		3300 nM		
CN(C)CCCCNC(=O)c1cn2c3c(c(N4CCC(N)C4)c(F)cc3c1=O)Oc1cc3c(cc1-2)Cc1ccccc1-3 (stereo not shown) [compound 532]	0.375 µM		440 nM		
O=C(CCN1CCCC1)N[C@@H]1CCN(c2c(F)cc3c(=O)c(C(=O)NCCN4CCCC4)cn4c3c2Oc2cc3c(cc2-4)oc2ccccc23)C1 [compound 376]	0.75 µM		2400 nM		
CN(C)CC(C)(C)CNC(=O)c1cn2c3c(c(N4CCC(N)C4)c(F)cc3c1=O)Oc1cc3ccccc3cc1-2 (stereo not shown) [compound 531]	0.375 µM		480 nM		
O=C(NCCN1CCCC1)c1cn2c3c(c(N4CC5CCCNC5C4)ccc3c1=O)Oc1cc3ccccc3cc1-2 (stereo not shown) [compound 1732]		0.375 µM		200 nM	
Nc1c(F)c(N2CCC(N)C2)c2c3c1c(=O)c(C(=O)O)cn3-c1cc3ccccc3cc1O2 (stereo not shown) [compound 5]	1.75 µM		7200 nM		
CN1CCN(CCCNC(=O)c2cn3c4c(c(N5CCC(NC(=O)OC(C)(C)C)C5)c(F)cc4c2=O)Oc2cc4c(cc2-3)oc2ccccc24)CC1 (stereo not shown) [compound 383]	0.75 µM		370 nM		
NC1CCN(c2ccc3c(=O)c(C(=O)NCCCN4CCOCC4)cn4c3c2Oc2cc3ccccc3cc2-4)C1 (stereo not shown) [compound 1557]		0.75 µM		1500 nM	
CN1CCN(CCCNC(=O)c2cn3c4c(c(N5CC[C@@H](NC(=O)CCNCCC6CCCN6C)C5)c(F)cc4c2=O)Oc2cc4c(cc2-3)oc2ccccc24)CC1 (stereo partly shown) [compound 573]	0.18 µM		4500 nM		
CN(C)CCCCNc1c(F)cc2c(=O)c(C(=O)NCCCN3CCOCC3)cn3c4cc5c(cc4oc1c23)c(=O)c1ccccc15 [compound 522]	0.375 µM		1700 nM		
N[C@@H]1CCN(c2c(F)cc3c(=O)c(C(=O)NCCCN4CCOCC4)cn4c3c2Oc2cc3c(cc2-4)oc2ccccc23)C1 [compound 375]	0.75 µM		2700 nM		
CN1CCN(CCCNC(=O)c2cn3c4cc5c(cc4oc4c(N6CC[C@H](N)C6)c(F)cc(c2=O)c43)c(=O)c2ccccc25)CC1 [compound 520]	0.375 µM		1900 nM		

Continued, in another order:

IC50 [1, 2]	IC50 [1, 4]	SMILES	IC50 (HeLa cells; [3])	IC50 (HeLa cells; [5])	IC50 (HeLa cells; [6])
3 µM		CN1CCCC1CCNC(=O)c1cn2c3c(c(N4CC[C@H](N)C4)c(F)cc3c1=O)Oc1ccccc1-2 (stereo partly shown) [compound 36]	160 nM		
0.375 µM		CN(C)CCCCNC(=O)c1cn2c3c(c(N4CC5CCCNC5C4)c(F)cc3c1=O)Oc1cc3ccccc3cc1-2 (stereo not shown) [compound 548]	100 nM		
	0.375 µM	CN1CCCC1CCNC(=O)c1cn2c3c(c(NCCCN(CCO)CCO)c(F)cc3c1=O)Oc1cc3ccccc3cc1-2 (stereo not shown) [compound 1686]		400 nM	
0.375 µM		CN1CCCC1CCNC(=O)c1cn2c3c(c(NCCc4c[nH]cn4)c(F)cc3c1=O)Oc1cc3ccccc3cc1-2 (stereo not shown) [compound 1468]	350 nM		
0.75 µM		CN1CCC(Nc2c(F)cc3c(=O)c(C(=O)NCCC4CCCN4C)cn4c3c2Oc2cc3ccccc3cc2-4)CC1 (stereo not shown) [compound 388]	310 nM		
	0.375 µM	CN(C)CCCCNC(=O)c1cn2c3c(c(N4CC5CCCNC5C4)c(F)cc3c1=O)Oc1cc3ccccc3cc1-2 (stereo not shown) [compound 1639]		100 nM	
0.375 µM		CN(C)/C=N/CCCCNC(=O)c1cn2c3c(c(N4CC[C@@H](N)C4)c(F)cc3c1=O)Oc1cc3ccccc3cc1-2 [compound 503]	4000 nM		
2.5 µM		CN1CCCC1CCNC(=O)c1cn2c3c(c(NC[C@H]4CCCO4)c(F)cc3c1=O)Oc1cc3ccccc3cc1-2 (stereo partly shown) [compound 38]			260 nM
0.75 µM		CN1CCCC1CCNC(=O)c1cn2c3c(c(NCCC4CCCN4C)c(F)cc3c1=O)Oc1cc3c(cc1-2)oc1ccccc13 (stereo not shown) [compound 372]	3400 nM		
0.375 µM		CN1CCCC1CCNC(=O)c1cn2c3c(c(N4CCC(N)C4)ccc3c1=O)Oc1cc3ccccc3cc1-2 (stereo not shown) [compound 529]	750 nM		
0.375 µM		CN1CCN(CCCNC(=O)c2cn3c4c(c(N5CC[C@@H](N)C5)c(F)cc4c2=O)Oc2cc4ccccc4cc2-3)CC1 [compound 538]	280 nM		
4 µM		CN1CCCC1CCNC(=O)c1cn2c3c(c(NC[C@@H]4CCCO4)c(F)cc3c1=O)Oc1cc3ccccc3cc1-2 (stereo partly shown) [compound 26]			730 nM
1.8 µM		CN1CCCC1CCNC(=O)c1cn2c3c(c(NCCCN4CCCC4=O)c(F)cc3c1=O)Oc1cc3ccccc3cc1-2 (stereo not shown) [compound 102]	2200 nM		
0.5 µM		NCCCNC(=O)c1cn2c3c(c(N4CC[C@@H](N)C4)c(F)cc3c1=O)Oc1cc3ccccc3cc1-2 [compound 485]	500 nM		
0.5 µM		CN1CCCC1CCNC(=O)c1cn2c3c(c(N4CC[C@@H](NC(=O)CCN5CCCC5)C4)c(F)cc3c1=O)Oc1cc3c(cc1-2)oc1ccccc13 (stereo partly shown) [compound 483]	3200 nM		
3 µM		CN1CCCC1CCNC(=O)c1cn2c3c(c(NC[C@H]4CCCO4)c(F)cc3c1=O)Oc1cc3ccccc3cc1-2 (stereo partly shown) [compound 34]	280 nM		
0.58 µM		CN(C)CCCCNC(=O)c1cn2c3c(c(N4CC[C@H](N)C4)c(F)cc3c1=O)Oc1cc3ccccc3cc1-2 [compound 475]	240 nM		
0.75 µM		CN1CCCC1CCNC(=O)c1cn2c3c(c(NCC4(O)CCCCC4)c(F)cc3c1=O)Oc1cc3ccccc3cc1-2 (stereo not shown) [compound 391]	240 nM		
0.375 µM		CN1CCCC1CCNC(=O)c1cn2c3c(c(N4CCC(N)C4)c(F)cc3c1=O)Oc1cc3ccccc3cc1-2 (stereo not shown) [compound 540]			270 nM
